The values below come from a flash point compilation (Sun et al. 2020).

`Cc1ccnc(C)c1` [2,4-dimethylpyridine] displayed a flash point of 37 °C.

As to `Cc1ccc(C)c(O)c1` [2,5-dimethylphenol], the flash point stood at 95 °C.

`CC(=O)CCC(C)=O` [2,5-hexanedione] returned a flash point of 79 °C.

Turning to `Cc1cccc(C)c1O` [2,6-dimethylphenol], the flash point amounted to 73 °C.

In the case of `CC(C)Br` [2-bromopropane], the flash point came to 1 °C.

`CCC(C)=O` [2-butanone] showed a flash point of -9 °C.

`CCCCOCCOC(C)=O` [2-butoxyethyl acetate] gave a flash point of 71 °C.

Compound `CC1=CC2C(CC1)C2(C)C` (configuration not stated) [2-carene] came in with a flash point of 38 °C.

For `CC(Cl)CO` (configuration not stated) [2-chloro-1-propanol], the flash point was determined as 52 °C.

Turning to `Cc1ccccc1Cl` [2-chlorotoluene], the flash point came out at 43 °C.

Regarding `CCCCC(CC)CN` (configuration not stated) [2-ethyl-1-hexanamine], the flash point stood at 50 °C.

Consider `CCCCC(CC)CO` (configuration not stated) [2-ethyl-1-hexanol], for which the flash point turned out to be 77 °C.

Compound `CCC(CC)C(=O)O` [2-ethylbutyric acid] showed a flash point of 87 °C.

Compound `CC=CCCC` [2-hexene] yielded a flash point of -21 °C.

Regarding `OCCS` [2-mercaptoethanol], the flash point was 73 °C.

Turning to `C=CC(=C)C` [2-methyl-1,3-butadiene], the flash point was -48 °C.

`CCC(C)CS` (configuration not stated) [2-methyl-1-butanethiol] yielded a flash point of 19 °C.

`C=C(C)CCCCC` [2-methyl-1-heptene] had a flash point of 10 °C.

With `C=C(C)CCC` [2-methyl-1-pentene], the flash point was -26 °C.

`CC(C)CO` [2-methyl-1-propanol] gave a flash point of 27 °C.

For the compound `CCCCC=C(C)C` [2-methyl-2-heptene], the flash point is 8 °C.

With `CCC=C(C)C` [2-methyl-2-pentene], the flash point was -23 °C.

With `C=C(C)CO` [2-methyl-2-propen-1-ol], the flash point turned out to be 33 °C.

On to `C=C(C)C=O` [2-methyl-2-propenal], for which the flash point was -15 °C.

In turn, `CCC(O)C(C)C` (configuration not stated) [2-methyl-3-pentanol] yielded a flash point of 46 °C.

Regarding `CC=CCCCCC` [2-octene], the flash point stood at 14 °C.

With `CCCC(C)S` (configuration not stated) [2-pentanethiol], the flash point came to 9 °C.

`OCCc1ccccc1` [2-phenylethanol] returned a flash point of 102 °C.

`Cc1ccccn1` [2-picoline]: the flash point is 28 °C.

Consider `C=CC(=O)OCCCC` [2-propenoic acid, butyl ester], for which the flash point is 37 °C.

Consider `Cc1ccc(O)c(C(C)(C)C)c1` [2-t-butyl-4-methylphenol], for which the flash point was determined as 100 °C.

In the case of `Cc1cccc(C(C)(C)C)c1O` [2-t-butyl-6-methylphenol], the flash point worked out at 107 °C.

Consider `C=CCCO` [3-buten-1-ol], for which the flash point was 33 °C.

`C=CC(C)O` (configuration not stated) [3-buten-2-ol] came in with a flash point of 20 °C.

`SCCCCl` [3-chloro-1-propanethiol] showed a flash point of 43 °C.

For `OCCCCl` [3-chloro-1-propanol], the flash point turned out to be 73 °C.

On to `C=C(C)CCl` [3-chloro-2-methyl-1-propene], for which the flash point is -12 °C.

Consider `Cc1cccc(Cl)c1` [3-chlorotoluene], for which the flash point turned out to be 50 °C.

With `CCCC(CC)CC` [3-ethylhexane], the flash point worked out at 6 °C.

As to `CCCC(=O)CC` [3-hexanone], the flash point came to 35 °C.

Regarding `N#CCCO` [3-hydroxypropanenitrile], the flash point was found to be 129 °C.

For the compound `C=CC(C)=CC` [3-methyl-1,3-pentadiene], the flash point was -28 °C.

Take `CCC(C)C(C)O` (configuration not stated) [3-methyl-2-pentanol]: the flash point stood at 40 °C.

Turning to `C=Cc1cccc(C)c1` [3-methylstyrene], the flash point worked out at 51 °C.

With `CCCCCC(O)CC` (configuration not stated) [3-octanol], the flash point came to 65 °C.

With `CCCCCC(=O)CC` [3-octanone], the flash point was 53 °C.

Regarding `CCOC(=O)CC(C)=O` [3-oxobutanoic acid ethyl ester], the flash point was 70 °C.

`CCC(O)CC` [3-pentanol] returned a flash point of 34 °C.

`C=CCCBr` [4-bromo-1-butene] had a flash point of 9 °C.

In turn, `Brc1ccc(-c2ccccc2)cc1` [4-bromobiphenyl] displayed a flash point of 144 °C.

For `CCc1ccc(O)cc1` [4-ethylphenol], the flash point was found to be 104 °C.

Take `CC(=O)CC(C)C` [4-methyl-2-pentanone]: the flash point worked out at 14 °C.

With `Cc1ccc(N)cc1` [4-methylaniline], the flash point was 86 °C.

In the case of `CC1CCC(O)CC1` (configuration not stated) [4-methylcyclohexanol], the flash point worked out at 70 °C.

Compound `CCCCCC(C)CCC` (configuration not stated) [4-methylnonane] came in with a flash point of 38 °C.

`Cc1ccncc1` [4-methylpyridine] had a flash point of 37 °C.

With `C=Cc1ccc(C)cc1` [4-methylstyrene], the flash point was 45 °C.

In the case of `Cc1ccncc1` [4-picoline], the flash point worked out at 40 °C.

For `CCCCC=CCCCC` [5-decene], the flash point was 46 °C.

Take `CCCCCC(=O)CCCCC` [6-undecanone]: the flash point amounted to 88 °C.

`CN(C)CCCN` [N,N-dimethyl-1,3-propanediamine] had a flash point of 35 °C.

`CN(C)CC1CCCCC1` [N,N-dimethylcyclohexanemethylamine]: the flash point turned out to be 48 °C.

As to `CCCCNC(C)=O` [N-butylacetamide], the flash point is 116 °C.

As to `CCNC(C)=O` [N-ethylacetamide], the flash point is 110 °C.

`CNC(C)C` [N-methyl-2-propanamine]: the flash point was -31 °C.

Consider `CNc1ccccc1` [N-methylaniline], for which the flash point worked out at 80 °C.

`CCCCNC` [N-methylbutylamine] showed a flash point of 1 °C.

With `CC(=O)SC(C)(C)C` [S-t-butyl thioacetate], the flash point came to 33 °C.

`CC(=O)OC(C)(C)C` [acetic acid, 1,1-dimethylethyl ester] returned a flash point of 16 °C.

`CC=Cc1ccc(OC)cc1` [anethole] showed a flash point of 90 °C.

Consider `Sc1ccccc1` [benzenethiol], for which the flash point came out at 50 °C.

Compound `N#Cc1ccccc1` [benzonitrile] yielded a flash point of 75 °C.

With `CSCc1ccccc1` [benzyl methyl sulfide], the flash point was found to be 73 °C.

Compound `c1ccc(CCc2ccccc2)cc1` [bibenzyl] gave a flash point of 129 °C.

As for `BrC(Br)Br` [bromoform], the flash point was determined as 83 °C.

`C=CC(=O)OCCCC` [butyl acrylate]: the flash point amounted to 39 °C.

The compound `CCCCOC(=O)CC` [butyl propionate] came in with a flash point of 32 °C.

As for `Cc1ccc(C(C)C)cc1O` [carvacrol], the flash point was found to be 106 °C.

In the case of `CC(C)=CCCC(C)CC=O` (configuration not stated) [citronellal], the flash point came out at 75 °C.

Take `O=C1CCC1` [cyclobutanone]: the flash point is 10 °C.

Compound `N#CC1CCCCC1` [cyclohexanecarbonitrile] registered a flash point of 65 °C.

`SC1CCCCC1` [cyclohexanethiol] displayed a flash point of 43 °C.

As for `C1CCC2OC2C1` (configuration not stated) [cyclohexene oxide], the flash point worked out at 24 °C.

For the compound `SC1CCCC1` [cyclopentanethiol], the flash point turned out to be 25 °C.

Take `N#CC1CC1` [cyclopropanecarbonitrile]: the flash point is 32 °C.

The compound `NC1CC1` [cyclopropylamine] gave a flash point of -25 °C.

`CC(C)(C)SSC(C)(C)C` [di-tert-butyl disulfide] yielded a flash point of 67 °C.

As for `CC(C)(C)OOC(C)(C)C` [di-tert-butyl peroxide], the flash point worked out at 12 °C.

In the case of `CCCCSSCCCC` [dibutyl disulfide], the flash point came to 113 °C.

On to `CCCCOC(=O)c1ccccc1C(=O)OCCCC` [dibutyl phthalate], for which the flash point stood at 117 °C.

Consider `CCCCOC(=O)CCCCCCCCC(=O)OCCCC` [dibutyl sebacate], for which the flash point came to 167 °C.

`CCCCSCCCC` [dibutyl sulfide] registered a flash point of 60 °C.

As for `CCOC(=O)CCCC(=O)OCC` [diethyl glutarate], the flash point was determined as 96 °C.

For `CCOC(=O)c1ccccc1C(=O)OCC` [diethyl phthalate], the flash point stood at 160 °C.

Turning to `CCOS(=O)OCC` [diethyl sulfite], the flash point came to 53 °C.

Compound `CCN(C#N)CC` [diethylcyanamide] registered a flash point of 69 °C.

`COCCOCCOC` [diethylene glycol dimethyl ether] came in with a flash point of 51 °C.

For `CC(C)NC(C)C` [diisopropylamine], the flash point was -6 °C.

On to `CNC` [dimethylamine], for which the flash point is -18 °C.

As for `CCCNCCC` [dipropylamine], the flash point turned out to be 7 °C.

`C=CC1CCCCC1` [ethenylcyclohexane] yielded a flash point of 22 °C.

On to `CCOC(=O)c1ccccc1` [ethyl benzoate], for which the flash point came to 88 °C.

Compound `CCOC(=O)CCl` [ethyl chloroacetate] yielded a flash point of 53 °C.

As to `CCC1CCCC1` [ethyl cyclopentane], the flash point came to 15 °C.

Compound `O=C1OCCO1` [ethylene carbonate] yielded a flash point of 150 °C.

`FC1CCCCC1` [fluorocyclohexane] returned a flash point of 5 °C.

For `OCC(O)CO` [glycerol], the flash point worked out at 184 °C.

Regarding `CCCCCCC(=O)O` [heptanoic acid], the flash point amounted to 112 °C.

Turning to `Oc1ccc(O)cc1` [hydroquinone], the flash point was 165 °C.

For the compound `Ic1ccccc1` [iodobenzene], the flash point stood at 74 °C.

`C=C(C)C=O` [isobutenal]: the flash point was -0 °C.

In the case of `C=C(C)C` [isobutene], the flash point was -76 °C.
